Experimental findings from patent US20110020366A1, “USE OF BENZOPHENONE DERIVATIVE OR SALT THEREOF AND TNF ALPHA INHIBITOR IN COMBINATION AND PHARMACEUTICAL COMPOSITION CONTAINING THE DERIVATIVE OR SALT THEREOF AND THE INHIBITOR” (TOYAMA CHEMICAL CO., LTD., priority 2008, published 2011) are described below.

The assay concerns Mouse Type II Collagen-Induced Arthritis. In words: Mouse type II collagen-induced arthritis, arthritis score / inhibition rate. Format: in vivo. The conditions noted are these: compound A 30 mg/kg orally once a day for 10 days; DBA/1 J mice; day following the final administration. The method, then: Eight-week-old male DBA/1 J mice (9 or 10 mice per group; Charles River Laboratories Japan) were used. A 2 mg/mL bovine type II collagen dissolved in a 0.1 mol/L acetic acid solution (Koken Co., Ltd.) was mixed with an equal volume of Freund's complete adjuvant (BD Diagnostic Systems) to prepare an emulsion. The emulsion (0.2 mL) was intradermally injected into the hip of each mouse. Twenty-one days after the primary immunization, the same treatment was carried out (secondary sensitization), so that type II collagen arthritis was induced.
Compound A was dissolved in a 2-fold molar amount of sodium hydroxide solution, and a 3-fold weight of polyvinylpyrrolidone was then added to the solution, followed by dilution with distilled water. The concentration of compound A in a compound A (30 mg/kg)-dosing solution was adjusted to be 3 mg/mL. The concentration of compound A in compound A (3 mg/kg)-dosing solution for combined administration was adjusted to be 0.3 mg/mL. Each dosing solution was orally administered to the mice.
The anti-TNFα antibody was dissolved in phosphate buffered saline. The concentration of the anti-TNFα antibody in the anti-TNFα antibody (250 μg/mouse)-dosing solution was adjusted to be 1.25 mg/mL. […]
The knuckle portion and the articulations of wrist and tarsus portions of the four paws of each mouse were evaluated using the following 4 scores. […]

For the compound `O=C(O)CCc1cc(C(=O)c2ccc(OC3CCCC3)cc2O)ccc1OCc1ccc2c(O)noc2c1` [Compound A, 3-(5-(4-(cyclopentyloxy)-2-hydroxybenzoyl)-2-((3-hydroxy-1,2-benzisoxazol-6-yl)methoxy)phenyl)propionic acid], the “Arthritis inhibition rate (%)” value stood at 23%.
